We go through one compound from the NIST ThermoML archive (doi:10.1016/j.jct.2016.06.032).

± gives the expanded uncertainty stated by the source.

For data set [1] the following is noted: Crystal; DTA.
Data set [2] is described as follows: Molar enthalpy of transition or fusion. Particulars: Crystal; DSC.

With `N#Cc1ccccc1-c1ccc(CBr)cc1` [4'-(bromomethyl)-2-cyanobiphenyl], the Normal melting temperature in data set [1] amounted to 125.90 ± 1.1 °C. The “Molar enthalpy of transition or fusion” value in data set [2] was found to be 7 ± 0.454 kcal/mol.
